This is an account of results in US20220401664A1, “FLUID DELIVERY DEVICES AND METHODS” (Droplette Inc., priority 2015, published 2022).

Data set [1] has as its system E. Coli DH5-α. Nature of the data set: Bacterial inhibition by antibiotics passed through the device (OD 600 nm). The conditions noted are these: azithromycin 5 mg/mL, vancomycin 15 mg/mL, streptomycin 20 mg/mL, 6 hours, 37°, versus same antibiotics not passed through device. Type of data set: cell-based. How it is done:
Inhibition of bacterial strain E. Coli DH5-α with antibiotics dissolved in deionized water was tested by passing the antibiotics and water through the device. The three antibiotics tested were azithromycin (5 mg/mL), vancomycin (15 mg/mL), and streptomycin (20 mg/mL). As a positive control, the same antibiotics (not passed through the device) were tested. Additional controls included deionized water, and deionized water passed through the device. After addition of 100 μl of antibiotics or deionized water into 8 mL of LB broth, 100 μl of bacterial stock at 0.5 OD at 600 nm was added. The experiment was performed with 4 biological replicates and 3 technical replicates, providing a sample size of n=12. Samples were incubated at 37° centigrade and 200 RPM in a shaker for 6 hours and then optical density was measured at 600 nm in a spectrophotometer.

The conditions of data set [2]: for Droplette Hydration, improvement over starting hydration: left hand. As to the method:
In yet another experiment, 4 human subjects volunteered to have about 50 μL of sterile distilled water sprayed into their hand and have hydration levels measured with a Corneometer CM825 device. Skin was visually inspected for any discoloration at the time of study and after 24 hours, and subject comfort was assessed and self-reported. A pen was used to draw circles denoting a delivery site (having a circle diameter of about 1.5 cm) on the backs of the right and left hands. Hydration in the circled regions for both the right and left hands was assessed at the start with a Corneometer CM 825. A device having a configuration as disclosed in FIGS. 1-14 was used for about 30 seconds to deliver about 50 μL sterile water to the left hand of each subject. After about 5 seconds of rest, the hand was blotted dry with a tissue. About 100 μL of sterile water was topically applied to the back of the right hand of each subject in the circled region and spread to cover that area. After about 5 seconds of rest, that hand was blotted dry with a tissue.

The conditions of data set [3]: for depth of dye penetration: delivered with the device held 1 cm away from skin; for dye penetration: standard aerosol (piezoelectric transducer only) held 1 cm away. The text has this: A device having a configuration as disclosed in FIGS. 1-14 was used in a test along with a standard aerosol generated using only the piezoelectric transducer to compare dye penetration between the device and the aerosol. A mix of water and brilliant blue dye with a molecular weight of 792 Daltons was used to test penetration. Both the aerosol and the device were held 1 cm away from skin, and the solution was sprayed onto chicken and porcine skin-covered tissue. The skin and tissue were cut and dye penetration was measured. […] In between a range of 500 to 800 Daltons, there are a number of antibiotics, such as those used to treat skin and soft tissue infections. One example is ceftaroline, which is an antibiotic for Methicillin-resistant Staphylococcus aureus.

Like-named read-outs stand apart in the source and are kept apart here.

Consider `CC[C@H]1OC(=O)[C@H](C)[C@@H](O[C@H]2C[C@@](C)(OC)[C@@H](O)[C@H](C)O2)[C@H](C)[C@@H](O[C@@H]2O[C@H](C)C[C@H](N(C)C)[C@H]2O)[C@](C)(O)C[C@@H](C)CN(C)[C@H](C)[C@@H](O)[C@]1(C)O` [azithromycin], for which, in data set [1], the “bacterial inhibition after being passed through the device” value (“bacterial inhibition” for short) is reported as “retained their native function”.

As to `[H]/N=C(/N)N[C@H]1[C@H](O)[C@@H](O)[C@H](O[C@@H]2O[C@@H](C)[C@](O)(C=O)[C@H]2O[C@@H]2O[C@@H](CO)[C@H](O)[C@@H](O)[C@@H]2NC)[C@@H](N/C(N)=N\[H])[C@@H]1O` [streptomycin], in data set [1], the “bacterial inhibition” value is listed as “retained their native function”.

As for `CN[C@H](CC(C)C)C(=O)N[C@H]1C(=O)N[C@@H](CC(N)=O)C(=O)N[C@H]2C(=O)N[C@H]3C(=O)N[C@H](C(=O)N[C@H](C(=O)O)c4cc(O)cc(O)c4-c4cc3ccc4O)[C@H](O)c3ccc(c(Cl)c3)Oc3cc2cc(c3O[C@@H]2O[C@H](CO)[C@@H](O)[C@H](O)[C@H]2O[C@H]2C[C@](C)(N)[C@H](O)[C@H](C)O2)Oc2ccc(cc2Cl)[C@H]1O` [vancomycin], the “bacterial inhibition” value in data set [1] is recorded as “retained their native function”.

For `O` [water], in data set [2] (4 subjects, young and mature skin), the “water delivered into skin, device compared to topical application” value was “significantly more water was delivered”. Besides, the “Droplette Hydration, improvement over starting hydration” value in data set [2] (Subject 3, 1 Hour: Resting, about 50 μL sterile water by device) worked out at 58% improvement over; in data set [2] (Subject 3, 2 Hours: had eaten lunch and consumed 2 cups of water, device) it was 55% improvement over. Besides, the “Topical Hydration, improvement” value in data set [2] (Subject 3, 1 Hour: Resting, about 100 μL sterile water topically, right hand) is reported as 0% improvement (back. Moreover, the “Topical Hydration, improvement over baseline” value in data set [2] (Subject 3, 2 Hours: had eaten lunch and consumed 2 cups of water, topical, right hand) stood at 11% improvement over.

As to brilliant blue [brilliant blue dye], the results for the “depth of dye penetration” value in data set [3] (chicken tissue) and in data set [3] (porcine tissue) were 1.23 cm and 1 cm, respectively. Further, the dye penetration entry in data set [3] (chicken skin) and in data set [3] (porcine skin) was “did not penetrate either animal skin to any noticeable depth” in each case.
